Experimental data taken from patent US9724537B2, “Abnormal electrical conduction blocking apparatus using photodynamic therapy (PDT)” (Keio University, priority 2006, dated 2017).

Key:
[1] = human; intravenous injection 1 mg/kg; cited from earlier work
[2] = test system: myoblast strain H9c2 (2-1) derived from the rat cardiac muscle; assay: PDT cell lethality (CCK-8) in cell strain H9c2 (2-1); format: cell-based
Procedure: Using a skeletal muscle-like myoblast strain H9c2 (2-1) derived from the rat cardiac muscle, the relationship between the photosensitizer concentration and the cell lethality and the laser output required to induce cell death were investigated.
The above-mentioned cells were subcultured in a D-MEM+10% FBS medium, confluent cells were isolated, seeded on a 96-well microplate, and cultured at 37° C. under 5% CO2 for one day.
The cultured cells were adjusted to a density of 2.0×10^4 cells/well. As a photosensitizer, talaporfin sodium was dissolved in a medium at various concentrations and added at a concentration of 0.1 ml/well. After 1 to 2 h of loading, cells were irradiated with a laser beam. After completion of irradiation, the medium was replaced.
At this time, in a 0.5-cm^2 irradiation field (=area of the well) was irradiated with a continuous semiconductor laser beam (peak wavelength, 670.8 nm) under various conditions.
After irradiation with a laser beam, 0.01 ml of Cell Counting Kit-8 (Dojindo Laboratories, hereinafter referred to as CCK-8) was added to the medium in each well, the plate was incubated for 2 h, and then absorbance was measured to obtain the cell lethality. For calculation of the cell lethality, the property of a coloring reagent in CCK-8 of producing a color upon reduction with dehydrogenase in the cell was utilized. Six samples were examined.
(§1) The experimental conditions were as follows.
(i) Relationship between photosensitizer concentration and cell lethality
Agent concentrations: 10, 20, 30, 40 μg/ml
(§2) Laser intensity: 150 mW/cm^2
(§3) Total energy density: 3 J/cm^2
(ii) Relationship between total energy density of laser irradiation and cell lethality
Agent concentrations: 7.5, 15 μg/ml
Total energy density: 3, 6, 9, 12 J/cm^2
(iii) Relationship between laser intensity and cell lethality

[3] = test system: rat cardiac muscle cells in primary culture; assay: PDT cell lethality (CCK-8) in cardiac muscle cells in primary culture; format: cell-based
Procedure: The relationship between the photosensitizer concentration and the cell lethality and the laser output required to induce a cell death were investigated using rat cardiac muscle cells in primary culture.
Cardiac muscle cells in primary culture were purchased from Cell Garage Co., Ltd. as an extract from the rat ventricular muscle. As a medium, D-MEM/F12+10% FBS was used.
Cardiac muscle cells in primary culture were purchased in suspension and seeded on a 96-well microplate. Cells were cultured at 37° C. under 5% CO2, and cells on days 3 and 7 of culture were used. The cardiac muscle cells in primary culture were pulsatile, and pulsations among cells were synchronizing.
Cardiac muscle cells in primary culture were adjusted to a density of 2.0×10^4 cells/well. As a photosensitizer talaporfin sodium was dissolved in a medium at various concentrations and added at a concentration of 0.1 ml/well. After 1 to 2 h of loading, laser irradiation was performed, and the medium was replaced after the completion of irradiation.
At this time, a 0.5-cm^2 irradiation field (=area of well) was irradiated with a continuous semiconductor laser beam (peak wavelength, 670.8 nm) under various conditions.
After laser irradiation, 0.01 ml of Cell Counting Kit-8 (Dojindo Laboratories, hereinafter referred to as CCK-8) was added to the medium in each well, the plate was incubated for 2 h, and the absorbance was measured to calculate the cell lethality. Six samples were examined
as §1
(i) Cells on day 3 of culture
Used cells: cells on day 3 of culture
Agent concentrations: 5, 10, 15 μg/ml
as §2
Total energy density: 1, 2, 3, 5 J/cm^2
(ii) Cells on day 7 of culture
Used cells: cells on day 7 of culture
Agent concentrations: 20, 25, 30 μg/ml
as §3

[4] = test system: isolated ventricular muscle tissue; assay: Formation of electrical conduction block by PDT in isolated cardiac muscle tissue; parameters: species or system Wister rat; conditions: 4.3 μg/ml
Procedure: An electrical conduction block was formed by performing PDT using a cardiac muscle tissue.
A cardiac muscle tissue was isolated from a Wister rat, immersed in a perfusion fluid (Tyrode's solution [aerated with 95% O2 and 5% CO2 gases and stored at 37° C. in a constant-temperature apparatus]), spread, fixed on the floor (made of silicon) of a tissue bath with a tungsten wire to prepare a spread sample (maximum 1.5 cm long, 1.0 cm width, 0.18 cm thickness) of an isolated ventricular muscle. A perfusion fluid was passed through the spread sample and stabilized by allowing to stand for approx. 3 h. At this time, the perfusion fluid was not reused.
As a photosensitizer, talaporfin sodium was dissolved in a perfusion fluid at 4.3 μg/ml, and 300 cc was circulated and perfused. It is assumed that, when a photosensitizer is intravenously injected to a 300-g rat at approx. 2 mg/kg, the photosensitizer is dissolved at about this concentration in the fluid throughout the body. After loading for 2 h, a liquid level of the perfusion fluid was lowered to the tissue surface or lower, and the spread tissue was irradiated with a laser beam.
The irradiation laser beam was a continuous semiconductor laser beam (peak wavelength, 670.8 nm) and was delivered to the tissue from an irradiation port of 0.0078 cm^2 at the fiber end with an intensity of 150 mW/cm^2 in a contact state. While moving the fiber, a 0.1-cm^2 (0.1 cm length×1 cm width) region of the tissue surface was irradiated with a laser beam for 5 min. Irradiation was performed at 3.5 J/cm^2 in terms of total energy density.
The tissue action potential was measured as follows. An electrical stimulus of 2 Hz and 50 mA was applied from a bipolar electrode (0.2φ silver wire) using a stimulator, and a potential of the tissue surface was led with a bipolar measuring electrode (0.25φ stainless wire).
FIGS. 8A to 8F show changes in the potential of the spread tissue. In FIGS. 8A to 8F, the upper line represents potential changes at site 1 in FIG. 7. The lower line represents potential changes at site 2 in FIG. 7. The unit of the vertical axis is mV.

SMILES: C=Cc1c(C)c2cc3nc(c(CC(=O)N[C@@H](CC(=O)O)C(=O)O)c4[nH]c(cc5nc(cc1[nH]2)C(C)=C5CC)c(C)c4C(=O)O)[C@@H](CCC(=O)O)[C@@H]3C [talaporfin sodium, mono-L-aspartyl chlorine 6]
- early average half-life in plasma [1]: 14.6 h
- plasma concentration at 10 min [1]: 27000 ng/mL
- cell death vs total energy density ([2]; 7.5 μg/ml, 150 mW/cm^2, 3, 6, 9, 12 J/cm^2, FIG. 2): almost no cell death was observed
- cell lethality vs total energy density ([2]; 15 μg/ml, 150 mW/cm^2, 3, 6, 9, 12 J/cm^2, FIG. 2): the greater the total energy density of laser irradiation was, the higher the cell lethality was
- cell lethality at 40 μg/ml ([2]; 40 μg/ml vs 30 μg/ml, 150 mW/cm^2, 3 J/cm^2): the result did not differ from that at 30 μg/ml
- cell lethality vs laser intensity ([2]; 7.5, 15 μg/ml, 3 J/cm^2, laser intensity 50 to 200 mW/cm^2, FIG. 3): the cell lethality did not change
- cell lethality vs photosensitizer concentration ([2]; up to 30 μg/ml, 150 mW/cm^2, 3 J/cm^2, FIG. 1): the higher the photosensitizer concentration was, the higher the cell lethality was
- cell lethality at 5 J/cm^2 vs 3 J/cm^2 ([3]; cells on day 3 of culture, 15 μg/ml): the cell lethality decreased at the total energy density of laser irradiation of 5 J/cm^2 as compared with that at 3 J/cm^2
- cell lethality vs total energy density ([3]; cells on day 3 of culture, high talaporfin sodium concentration, 1, 2, 3, 5 J/cm^2, FIG. 10): the greater the total energy density of laser irradiation was, the higher cell lethality was
- cell lethality, day 7 vs day 3 cells ([3]; cells on day 7 of culture, 20, 25, 30 μg/ml, 3 J/cm^2, FIG. 11): the cell lethality was higher than when cells on day 3 of culture were used
- time without electrical conduction after block ([4]; loading 2 h, 3.5 J/cm^2): ≥ 1 h
- electrical conduction (potential at site 2) ([4]; loading 2 h, 3.5 J/cm^2, 5 min after the completion of laser irradiation): the electrical conduction route was completely blocked
- electrical conduction (potential at site 2) ([4]; loading 2 h, 150 mW/cm^2, 5 min after the start of laser irradiation): a portion of the stimulus conduction route is blocked
- cell conditions in tissue sample at PDT site ([4]; 3.5 J/cm^2, FIG. 9): no major abnormality was observed in the cell conditions
